Experimental data published in PMC11436758, “Computer-aided drug design to generate a unique antibiotic family” (Nature Communications, 2024).
Values after ≈ are worked out from the molar mass of the structure shown. Values joined by “and” are separate entries in the source; they are usually repeats but may differ in a detail not shown here. Identical values can stand only once.

Assays:
MRSA (ATCC 33591) = experiment: MIC, CLSI broth microdilution; assay type: cell-based, S. aureus; settings: three individual replicates
Experimental: The medium employed for the assay was Mueller Hinton II Broth (MHB II; Becton-Dickinson, Sparks, MD, USA). Agar plates used for the organisms were trypticase soy agar plus 5% sheep blood (BD; Sparks, MD, USA). MIC assay plates were prepared using the CLSI broth microdilution procedure. Automated liquid handlers (Multidrop 384, Biomek 2000 and Biomek FX) were used to conduct serial dilutions and liquid transfers. A standardized inoculum of each organism was prepared per CLSI methods. Suspensions were prepared to equal a 0.5 McFarland standard, followed by a 1:20 dilution in test media. The inocula were dispensed into sterile reservoirs divided by length (Beckman Colter) and the Biomek 2000 was used to inoculate the plates. Daughter plates were placed on the Biomek 2000 work surface in reverse orientation so that inoculation took place from low to high drug concentration. The Biomek 2000 delivered 10 μL of the diluted suspension into each well. These inoculations yielded a final cell concentration in the daughter plates of ~5 × 10^5 colony-forming units/mL in each well. The wells of the daughter plates ultimately contained 185 μL of broth, 5 μL of drug solution, and 10 μL of bacterial inoculum. Plates were covered with a sterile lid on the top plate, placed in plastic bags, and incubated at 35 °C for ~18 h. The microplates were viewed from the bottom using a plate viewer and the MIC was read. The MIC was recorded as the lowest concentration of drug that inhibited visible growth of the organism. Uninoculated solubility control plates were also observed for evidence of drug precipitation.

AcpS = AcpS (Escherichia coli, UniProt P24224); experiment: AcpS activity against increasing concentration of CoA with and without DNM0547 (mode of inhibition); assay type: biochemical; settings: Suppl Fig 2, [AcpS] 5 nM; for V(+Inhibitor): replicates
Source text: AcpS was chosen as a potential new antibiotic target for several important reasons beyond its high level of conservation across bacterial species. […] We undertook a more in-depth characterization of AcpS inhibition using DNM0547 as the test compound for this antibiotic family. The computer-aided drug design strategy used positions DNM compounds in the active site of AcpS. If DNM0547 is binding to the active site of AcpS competitive inhibition against an AcpS substrate would be predicted.
The acpS gene was amplified from S. aureus and E. coli genomic DNA and inserted into a pET23b vector using standard recombinant DNA methodology such that the protein product would result in addition of a C-terminal 6x-His tag in frame with the AcpS open reading frames. The DNA sequences inserted in the vector were sequenced and found to be identical to the known E. coli and S. aureus acpS open reading frames. Recombinant His-Tagged AcpS expression was induced by IPTG addition and overnight culture. Cell lysate was obtained by sequential aspiration through 16, 18 and 21 G needles in a buffer of 50 mM Tris-HCl (pH 8.5), 10 mM MgCl2, 2 mM DTT, 5% glycerol, and further adjusted to pH 8.1 with MES. […] In a typical AcpS enzyme activity assay, 57 µM [^3H]acetyl-CoA, 2 µg apo-ACP, 10 mM MgCl2, 5 mM DTT, 50 mM Na phosphate (pH 7.0), and AcpS in a final volume of 10 µL were incubated at room temperature in a 1.5 mL microcentrifuge tube. At 5, 10, 15, and 20 min 2 µL of reaction were added to 750 µl 10% TCA on ice. Bovine serum albumin (BSA; 20 µl of a 25 mg/mL solution) was then added to facilitate precipitation of radiolabeled protein. The samples were centrifuged at 12,000 × g for 5 min. Supernatants were removed, and the pellets were rinsed twice with 750 µl of 10% trichloroacetic acid. Pellets were resuspended in 50 µl of formic acid and transferred to scintillation vials. 2 mL of scintillation fluid was added, and the amount of [^3H]-labeled holo-ACP formed was quantified by liquid scintillation counting. The enzymatic reaction proceeded in a linear manner depending on time (10–40 min) and enzyme concentration (1–5 nM). Routinely, each data point was determined at least by triplicate.
Supplementary Figure 2. […] AcpS enzyme activity was […]
determined versus using purified AcpS and increasing concentrations of CoA in the presence and absence of 8 µM DNM0547. Data are the mean values +/ - SD of three separate experiments performed in triplicate from three separate enzyme preparation. GraphPad Prism was used to determine V max and Km values.

AcpS_R48A = target: T1, AcpS_R48A (Escherichia coli, UniProt P24224, R48A); experiment: Inhibition of purified AcpS site-directed mutant by drug (Suppl Fig 3 source data); assay type: biochemical; settings: for AcpS rate nM/min, Mean / AcpS rate: Suppl Fig 3, [AcpS_R48A] 5 nM; for AcpS rate: replicates
T1 construct: 6x-His (C); made in house
T1 sequence (P24224 whole entry R48A): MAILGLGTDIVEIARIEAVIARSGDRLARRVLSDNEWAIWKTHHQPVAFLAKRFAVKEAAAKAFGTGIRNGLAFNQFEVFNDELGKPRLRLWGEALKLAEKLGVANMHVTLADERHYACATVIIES

Chain of AcpS (P24224 2-126): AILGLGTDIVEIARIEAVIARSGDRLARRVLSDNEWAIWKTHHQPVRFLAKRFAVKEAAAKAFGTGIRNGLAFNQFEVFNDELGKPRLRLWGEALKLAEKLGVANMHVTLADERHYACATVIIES

CC(C)c1cc(Cl)ccc1-c1cc(-c2nnn[nH]2)c(-c2ccc(Cl)cc2C(C)C)s1 [DNM0547]
MIC (MRSA (ATCC 33591)): 2 mg/L (≈ 4.37 µM)
V(+Inhibitor) Mean (AcpS; Acetyl CoA 0.06 mM): 20.55 nM/min
V(+Inhibitor) (AcpS; Acetyl CoA 0.06 mM): 19.96 nM/min and 23.46 nM/min and 18.23 nM/min
V(+Inhibitor) Mean (AcpS; Acetyl CoA 0.24 mM): 101.48 nM/min
V(+Inhibitor) (AcpS; Acetyl CoA 0.24 mM): 97.72 nM/min and 105.12 nM/min and 101.61 nM/min
V(+Inhibitor) Mean (AcpS; Acetyl CoA 0.48 mM): 125.64 nM/min
V(+Inhibitor) (AcpS; Acetyl CoA 0.48 mM): 122.32 nM/min and 124.81 nM/min and 129.79 nM/min
V(+Inhibitor) Mean (AcpS; Acetyl CoA […]): 57.60 nM/min
AcpS rate nM/min, Mean (AcpS_R48A; Drug Conc 1 uM): 97.88 nM/min
AcpS rate (AcpS_R48A; Drug Conc 1 uM): 102.89 nM/min and 96.62 nM/min and 94.12 nM/min
AcpS rate nM/min, Mean (AcpS_R48A; Drug Conc 2 uM): 93.89 nM/min
AcpS rate (AcpS_R48A; Drug Conc 2 uM): 97.97 nM/min and 91.69 nM/min and 92.02 nM/min
AcpS rate nM/min, Mean (AcpS_R48A; Drug Conc 4 uM): 94.54 nM/min
AcpS rate (AcpS_R48A; Drug Conc 4 uM): 95.47 nM/min and 93.88 nM/min and 94.27 nM/min
AcpS rate nM/min, Mean (AcpS_R48A; Drug Conc 8 uM): 92.47 nM/min
AcpS rate (AcpS_R48A; Drug Conc 8 uM): 92.76 nM/min and 91.81 nM/min and 92.85 nM/min
AcpS rate nM/min, Mean (AcpS_R48A; Drug Conc 16 uM): 48.14 nM/min
AcpS rate (AcpS_R48A; Drug Conc 16 uM): 58.48 nM/min and 54.48 nM/min and 31.45 nM/min
AcpS rate nM/min, Mean (AcpS_R48A; Drug Conc 32 uM): 20.22 nM/min
AcpS rate (AcpS_R48A; Drug Conc 32 uM): 22.18 nM/min and 16.02 nM/min and 22.44 nM/min
AcpS rate nM/min, Mean (AcpS_R48A; Drug Conc 64 uM): 10.15 nM/min
AcpS rate (AcpS_R48A; Drug Conc 64 uM): 9.77 nM/min and 11.77 nM/min and 8.90 nM/min
AcpS rate nM/min, Mean (AcpS_R48A; Drug Conc 128 uM): 4.77 nM/min
AcpS rate (AcpS_R48A; Drug Conc 128 uM): 4.67 nM/min (2×) and 4.95 nM/min
remaining activity at 1 µM (AcpS_R48A; read-out: % of untreated, Suppl Fig 3, [AcpS_R48A] 5 nM, Drug Conc 1 uM, replicates): 106%
remaining activity at 2 µM (AcpS_R48A; read-out: % of untreated, Suppl Fig 3, [AcpS_R48A] 5 nM, Drug Conc 2 uM, replicates): 101%
remaining activity at 4 µM (AcpS_R48A; read-out: % of untreated, Suppl Fig 3, [AcpS_R48A] 5 nM, Drug Conc 4 uM, replicates): 98.7%
remaining activity at 8 µM (AcpS_R48A; read-out: % of untreated, Suppl Fig 3, [AcpS_R48A] 5 nM, Drug Conc 8 uM, replicates): 95.9%
remaining activity at 32 µM (AcpS_R48A; read-out: % of untreated, Suppl Fig 3, [AcpS_R48A] 5 nM, Drug Conc 32 uM, replicates): 22.9%
remaining activity at 64 µM (AcpS_R48A; read-out: % of untreated, Suppl Fig 3, [AcpS_R48A] 5 nM, Drug Conc 64 uM, replicates): 10.1%
remaining activity at 128 µM (AcpS_R48A; read-out: % of untreated, Suppl Fig 3, [AcpS_R48A] 5 nM, Drug Conc 128 uM, replicates): 4.83%
